Assay results reported in US10047105B2, “Gyrase inhibitors” (Merck Sharp & Dohme Corp., priority 2009, dated 2018).
Values after ≈ are worked out from the molar mass of the structure shown.

Columns and labels:
[1] = system: S. aureus ATCC 13709; experiment: MIC, antibacterial potency, S. aureus; assay type: cell-based; conditions: S. aureus
[2] = system: S. pneumoniae ATCC 51916; experiment: MIC, S. pneumoniae; assay type: cell-based; conditions: S. pneumoniae

SMILES	MIC, SA [1] [µg/mL]	MIC Spn52 [2] [µg/mL]
CCc1[nH]c2nc(Sc3cccnc3)nc(Cl)c2c1C=O [700,075]	64 (≈ 201 µM)	
CCc1[nH]c2nc(Sc3cccnc3)nc(NCC(C)C)c2c1C=O [700,076]	> 64	
CCc1[nH]c2nc(Sc3cccnc3)nc(NCc3ccc(C)o3)c2c1C=O [700,077]	> 64	
CCc1[nH]c2nc(Sc3cccnc3)nc(NCC3CCCCC3)c2c1C=O [700,078]	> 64	
CCc1[nH]c2nc(Sc3cccnc3)nc(NCCOc3ccccc3)c2c1C=O [700,079]	> 64	
CCc1[nH]c2nc(Sc3cccnc3)nc(NCc3ccccc3)c2c1C=O [700,080]	> 64	
CCOCCNc1nc(Sc2cccnc2)nc2[nH]c(CC)c(C=O)c12 [700,082]	> 64	
CCc1[nH]c2nc(Sc3cccnc3)nc(N3CCN(C(C)C)CC3)c2c1C=O [700,084]	> 64	
CCc1[nH]c2nc(Sc3cccnc3)nc(N3CCN(CC(=O)N(C)C)CC3)c2c1C=O [700,085]	> 64	
CCc1[nH]c2nc(Sc3cccnc3N)nc(Cl)c2c1C=O [700,088]	> 64	
CCc1[nH]c2nc(Sc3cccnc3)nc(NCC(O)CO)c2c1C=O (centres unmarked) [700,090]	> 64	
CCc1[nH]c2nc(Sc3cccnc3)nc(NCc3ccccc3OC)c2c1C=O [700,091]	> 64	
CCc1[nH]c2nc(Sc3cccnc3)nc(NCC3CCCO3)c2c1C=O (centres unmarked) [700,092]	64 (≈ 167 µM)	
CCc1[nH]c2nc(Sc3cccnc3)nc(NC(C)C)c2c1C=O [700,093]	> 64	
CCc1[nH]c2nc(Sc3cccnc3)nc(NCCOC)c2c1C=O [700,094]	64 (≈ 179 µM)	
CCc1[nH]c2nc(Sc3cccnc3)nc(NCCO)c2c1C=O [700,096]	> 64	
CCc1[nH]c2nc(Sc3cccnc3)nc(NCc3cccc(S(C)(=O)=O)c3)c2c1C=O.Cl [700,098]	> 64	
CCc1[nH]c2nc(Sc3nc4ccccc4s3)nc(Cl)c2c1C=O [700,099]	> 64	
CCc1[nH]c2nc(Sc3nc4ccccc4s3)nc(NC[C@H](C)O)c2c1C=O [700,100]	> 64	
CCc1[nH]c2nc(Sc3nc4ccccc4s3)nc(NC(C)C)c2c1C=O [700,101]	> 64	
CCc1[nH]c2nc(Sc3nc4ccccc4s3)nc(NCCN3CCOCC3)c2c1C=O [700,102]	> 64	
CCc1[nH]c2nc(Sc3nc4ccccc4s3)nc(NCc3cccnc3)c2c1C=O [700,103]	> 64	
C#CCNc1nc(Sc2nc3ccccc3s2)nc2[nH]c(CC)c(C=O)c12 [700,104]	> 64	
CCNc1nc(Sc2nc3ccccc3s2)nc2[nH]c(CC)c(C=O)c12 [700,105]	> 64	

SMILES	MIC, SA [1] [µg/mL]	MIC Spn52 [2] [µg/mL]
CCc1[nH]c2nc(Sc3nc4ccccc4s3)nc(NCCCN3CCOCC3)c2c1C=O [700,106]	> 64	
CCc1[nH]c2nc(Sc3nc4ccccc4s3)nc(NCCCn3ccnc3)c2c1C=O [700,107]	> 64	
CCc1[nH]c2nc(Sc3nc4ccccc4s3)nc(NN)c2c1C=O [700,108]	> 64	
CCc1[nH]c2nc(Sc3nc4ccccc4s3)nc(Cl)c2c1CO [700,109]	> 64	
CCc1[nH]c2nc(Sc3cccnc3)nc(Cl)c2c1C(C)=O [700,119]	64 (≈ 192 µM)	
CCc1[nH]c2nc(Sc3cccnc3)nc(NCCCn3ccnc3)c2c1C(C)=O [700,121]	32 (≈ 75.9 µM)	
CCc1[nH]c2nc(Sc3cccnc3)nc(NC(C)C)c2c1C(C)=O [700,122]	> 64	
CCc1[nH]c2nc(Sc3cccc(C(=O)O)c3)nc(NC[C@H](C)O)c2c1C=O [700,127]	> 64	
CCc1[nH]c2nc(Sc3cccnc3)nc(OC)c2c1C=O [700,129]	16 (≈ 50.9 µM)	
CCOc1nc(Sc2cccnc2)nc2[nH]c(CC)c(C=O)c12 [700,130]	8 (≈ 24.4 µM)	
CCc1[nH]c2nc(Sc3cccnc3)nc(N[C@H](C)CO)c2c1C=O [700,131]	64 (≈ 179 µM)	
CCc1[nH]c2nc(Sc3cccnc3)nc(NC3CCCC[C@H]3O)c2c1C=O (some centres unmarked) [700,132]	32 (≈ 80.5 µM)	
CCc1[nH]c2nc(Sc3cccnc3)nc(N[C@H]3CCCC[C@@H]3N)c2c1C=O [700,133]	> 64	
CCOC(=O)c1ccc(CNc2nc(Sc3cccnc3)nc3[nH]c(CC)c(C=O)c23)o1 [700,135]	> 64	
CCc1[nH]c2nc(Sc3cccnc3)nc(N(C)C)c2c1C=O [700,136]	16 (≈ 48.9 µM)	
CCc1[nH]c2nc(Sc3cccnc3)nc(N(C)CCN(C)C)c2c1C=O [700,137]	64 (≈ 166 µM)	
CCc1[nH]c2nc(Sc3cccnc3)nc(NCCCCCC(=O)O)c2c1C=O [700,141]	64 (≈ 155 µM)	
CCc1[nH]c2nc(Sc3cccnc3)nc(NC34CC5CC(C3)C(=O)C(C5)C4)c2c1C=O [700,142]	32 (≈ 71.5 µM)	
CCc1[nH]c2nc(Sc3nc4ccccc4s3)nc(N)c2c1C [700,147]	> 64	
CCc1[nH]c2nc(SCc3cccnc3)nc(N)c2c1C [700,148]	> 64	
CCc1[nH]c2nc(Sc3cnc4ccccc4n3)nc(N)c2c1C [700,149]	> 64	
CCc1nc2c(N(C)C)nc(Sc3cccc(C(=O)O)c3)nc2[nH]1.O=C(O)C(F)(F)F [700,220]	> 64	64
CCc1[nH]c2nc(Sc3cccnc3)nc(NCCCn3ccnc3)c2c1C=O.O=C(O)C(F)(F)F.O=C(O)C(F)(F)F [700,261]	16	32
CCc1[nH]c2nc(Sc3cccnc3)nc(Cl)c2c1Br.O=C(O)C(F)(F)F [700,267]	2	16

SMILES	MIC, SA [1] [µg/mL]	MIC Spn52 [2] [µg/mL]
CCc1[nH]c2nc(Sc3cccnc3)nc(Cl)c2c1Cl.O=C(O)C(F)(F)F [700,268]	4	16
CCc1[nH]c2nc(Sc3cccnc3)nc(NCCCn3ccnc3)c2c1Br.O=C(O)C(F)(F)F.O=C(O)C(F)(F)F [700,269]	4	16
CCc1[nH]c2nc(Sc3cccnc3)nc(NC[C@H](C)O)c2c1Br.O=C(O)C(F)(F)F [700,270]	2	8
CCc1[nH]c2nc(Sc3cccnc3)nc(NCc3ccccc3OC)c2c1Br.O=C(O)C(F)(F)F [700,271]	> 64	> 64
CCc1[nH]c2nc(Sc3cccnc3)nc(NC[C@H](C)O)c2c1Cl.O=C(O)C(F)(F)F [700,273]	4	16
CCc1[nH]c2nc(Sc3cccnc3)nc(NCCCn3ccnc3)c2c1Cl.O=C(O)C(F)(F)F [700,274]	4	16
CCOc1nc(Sc2cccnc2)nc2[nH]c(CC)c(Br)c12.O=C(O)C(F)(F)F [700,275]	1	8
CCOc1nc(Sc2nc(C(=O)OC)cs2)nc2[nH]c(CC)c(Br)c12 [700,281]	32 (≈ 72.2 µM)	64 (≈ 144 µM)
CCc1[nH]c2nc(Sc3nc(C(=O)OC)cs3)nc(O)c2c1Br [700,282]	≤ 0.5	4 (≈ 9.63 µM)
CCOc1nc(Sc2nc(C(=O)O)cs2)nc2[nH]c(CC)c(Br)c12 [700,286]	4 (≈ 9.32 µM)	32 (≈ 74.5 µM)
CCc1[nH]c2nc(Sc3cccnc3)nc(NCCNc3ccc(C(=O)O)cn3)c2c1C=O [700,287]	> 64	> 64
CCOc1nc(S(C)(=O)=O)nc2[nH]c(CC)c(Br)c12 [700,288]	> 64	64 (≈ 184 µM)
CCOC(=O)c1coc(Sc2nc(OCC)c3c(Br)c(CC)[nH]c3n2)n1 [700,290]	> 64	> 64
CCOC(=O)c1cnc(Sc2nc(OCC)c3c(Br)c(CC)[nH]c3n2)s1 [700,291]	> 64	> 64
CCOc1nc(Sc2nc(C(=O)O)co2)nc2[nH]c(CC)c(Br)c12 [700,292]	> 64	> 64
CCOc1nc(Sc2ncc(C(=O)O)s2)nc2[nH]c(CC)c(Br)c12 [700,293]	32 (≈ 74.5 µM)	32 (≈ 74.5 µM)
CCOc1nc(Sc2nc(C(=O)N[C@H]3CCOC3=O)co2)nc2[nH]c(CC)c(Br)c12 [700,294]	> 64	> 64
CCc1[nH]c2nc(Sc3cccc(NC(=O)OC)c3)nc(NC[C@H](C)O)c2c1Br [700,295]	> 64	32 (≈ 66.6 µM)
CCc1[nH]c2nc(Sc3cccc(CC(=O)OC)c3)nc(Cl)c2c1Br [700,296]	> 64	64 (≈ 145 µM)
CCOc1nc(Sc2cnc3cccnc3n2)nc2[nH]c(CC)c(Br)c12 [700,297]	≤ 0.5	2 (≈ 4.64 µM)
CCOc1nc(Sc2cnc3cccnc3n2)nc2[nH]c(CC)c(Cl)c12 [700,298]	2 (≈ 5.17 µM)	8 (≈ 20.7 µM)
CCOc1nc(Sc2nc(C(=O)OC)c(C(C)C)s2)nc2[nH]c(CC)c(Br)c12 [700,301]	64 (≈ 132 µM)	> 64
CCOc1nc(Sc2nc(C(=O)OC)c(C(C)C)s2)nc2[nH]c(CC)c(Cl)c12 [700,302]	32 (≈ 72.6 µM)	> 64
CCc1[nH]c2nc(Sc3cc(=O)n(CCc4ccccc4)c(=O)[nH]3)nc(N3CC(O)C3)c2c1Br [700,413]		8 (≈ 14.7 µM)
